{
  "source": "paper PMC4941420",
  "about": "“A Rational Approach for the Identification of Non-Hydroxamate HDAC6-Selective Inhibitors” (Scientific Reports, 2016)",
  "key": {"Cytotoxicity XTT, HeLa": {"assay": "Cytotoxicity XTT, HeLa", "assay_type": "cell-based, human", "details": "human, HeLa cells, mean ± SD of 3 independent experiments in triplicate, read-out: cytotoxic IC50 HeLa", "experimental": "(§1) HeLa and HEK 293 cells (ATCC CRL-1573) were cultured as described above and seeded into 96-well plates at 400 cells/well. Test and standard compounds were added to plate wells in triplicate (0.05% DMSO in culture medium) in a range of six concentrations. Following 72 h of incubation, […] of an activated XTT solution was added to the cells (1 mg/mL). The absorbance was measured at 450 nm after 2 h incubation at 37 °C. The growth of the compound-treated cells was compared with the growth of vehicle-treated control cells. IC50 values were calculated with GraphPad Prism 6.0."}, "[1]": {"test_system": "α-tubulin acetylation in HeLa cells", "assay": "Acetyl-α-tubulin sandwich ELISA in HeLa cells", "assay_type": "cell-based, human", "details": "25 μM, 48 h", "experimental": "The acetyl-α-tubulin sandwich ELISA Kit (Pathscan® #7204, Cell Signalling) was used to determine tubulin acetylation levels, and Western blotting was used to evaluate histone H4 acetylation, both methods applied to lysates of treated and non-treated HeLa cells (ATCC CCL-2). Cells were cultured in DMEM medium, 4.5 g/L glucose, L-glutamine (Invitrogen), supplemented with 10% heat-inactivated fetal bovine serum (FBS, Biowest), 100 units/mL penicillin, and 100 μg/mL streptomycin, and 1% non-essential amino acids (Invitrogen) at 37 °C with 5% CO2. Prior to ELISA experiments, cells were seeded into 6-well plates at 150,000 cells/well and transfected with the HDAC6-GFP construct (pEGFP.N1-HDAC6, Addgene)[58], using the Lipofectamine 2000 reagent (Invitrogen). Cells were then treated with test compounds, standards or vehicle (0.5% DMSO in culture medium) for 48 h. After the incubation time, cells were washed with cold DPBS (Invitrogen) and lysates were obtained by recovering cells in cold lysis buffer provided in the ELISA kit, supplemented with a protease inhibitor tablet (SigmaFast, Sigma Aldrich). Briefly, cells were harvested in DPBS and centrifuged. The cell pellet was suspended in 100 μL lysis buffer, vortexed, and kept on melting ice for 30 min. Lysates were then obtained by recovering the supernatant after a centrifugation step of 10 min at 11,000 g, 4 °C. Protein concentration was determined by fluorimetry using the Qubit protein assay kit (Invitrogen). Cell lysates were tested at 1 mg/mL following the instructions provided by the ELISA kit manufacturer. For the Western blotting, cells were seeded into 100 mm Petri dishes and treated for 6 h. After the incubation time, cells were washed with cold DPBS (Invitrogen) supplemented with a protease inhibitor tablet (Sigma Fast, Sigma Aldrich), and lysates were obtained by recovering cells in 100 μL cold lysis buffer (10 mM Hepes pH 7.9, 1.5 mM MgCl2, 10 mM KCl, 0.5 mM DTT, 1.5 mM PMSF, 0.2M HCl) the same way as described above. […]"}, "[2]": {"assay": "Cytotoxicity XTT, HEK 293", "assay_type": "cell-based", "details": "human, HEK 293 cells (ATCC CRL-1573), mean ± SD of 3 independent experiments in triplicate, read-out: cytotoxic IC50 HEK 293", "experimental": "as §1"}, "HDAC6": {"test_system": "HDAC6", "details": "cited from earlier work"}, "HeLa cells": {"test_system": "HeLa cells", "assay": "Cytotoxicity XTT, HeLa", "assay_type": "cell-based, human", "details": "72 h, mean ± SD of 3 independent experiments in triplicate, read-out: cytotoxic IC50 HeLa", "experimental": "as §1"}, "HEK 293 cells": {"test_system": "HEK 293 cells", "assay": "Cytotoxicity XTT, HEK 293", "assay_type": "cell-based", "details": "72 h, mean ± SD of 3 independent experiments in triplicate, read-out: cytotoxic IC50 HEK 293", "experimental": "as §1"}},
  "data": [
    {"smiles": "CN1CCc2c(c3ccccc3n2Cc2ccc(C(=O)NO)cc2)C1", "note": "[Tubastatin A]", "values": [
      {"measurement": "IC50 at 72 h", "setting": "Cytotoxicity XTT, HeLa", "value": "11200 ± 400", "unit": "nM"},
      {"measurement": "tubulin acetylation", "setting": "[1]", "value": "able to induce tubulin acetylation"},
      {"measurement": "IC50 at 72 h", "setting": "[2]", "value": "2400 ± 600", "unit": "nM"},
      {"measurement": "IC50", "setting": "HDAC6", "value": "[…]"}
    ]},
    {"smiles": "CC(/C=C/C(=O)NO)=C\\[C@@H](C)C(=O)c1ccc(N(C)C)cc1", "note": "[Trichostatin A]", "values": [
      {"measurement": "IC50", "setting": "HeLa cells", "value": "1500 ± 300", "unit": "nM"},
      {"measurement": "IC50", "setting": "HEK 293 cells", "value": "300 ± 20", "unit": "nM"}
    ]}
  ]
}
